Among the data in PubChem BioAssay (NCI) are GI50 and TGI values, retold here.

Some test systems named below: A498 renal; HOP-62 NSCLC; K-562 leukemia; M14 melanoma; MCF7 breast; MDA-MB-231 breast; OVCAR-8 ovarian; RPMI-8226 leukemia; SF-268 CNS; SK-OV-3 ovarian.
What all share (assay): NCI-60 cell line screen, 48 h

“And” between values parts separate entries of the source, which are not always exact repeats. Equal entries are not always repeated.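 Growth conditions: 96-well plates. Treatment: test compound, 48 hours, 5 concentrations. Analysis: linear interpolation between bracketing concentrations; unreached endpoints set to highest concentration. GI50: concentration for 50% inhibition of growth. TGI marks complete inhibition of growth.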 Bounds are passed on as bounds.

On to `Clc1cccc(Cn2cc(Cc3cn(Cc4cccc(Cl)c4)c4ccccc34)c3ccccc32)c1`, for which the GI50 with A498 renal is > 100000 nM; with HOP-62 NSCLC, > 100000 nM; in the experiment with K-562 leukemia it was > 100000 nM; in the experiment on M14 melanoma, > 100000 nM; in the experiment with MCF7 breast, > 100000 nM; in the experiment on MDA-MB-231 breast, 52000 nM. Besides, the GI50 in the experiment on OVCAR-8 ovarian, with RPMI-8226 leukemia, with SF-268 CNS and with SK-OV-3 ovarian was > 100000 nM in each case. Further, the TGI in the experiment with A498 renal, in the experiment on HOP-62 NSCLC, in the experiment on K-562 leukemia, in the experiment on M14 melanoma, with MCF7 breast and in the experiment on MDA-MB-231 breast was > 100000 nM in each case. The TGI with OVCAR-8 ovarian, in the experiment on RPMI-8226 leukemia, with SF-268 CNS and with SK-OV-3 ovarian was > 100000 nM each time.
For `O=S(=O)(c1ccc2c(c1)C(=NO)c1cc(S(=O)(=O)N3CCCCC3)ccc1-2)N1CCCCC1`, the GI50 is > 1000 nM and 8880 nM in the experiment on A498 renal; 168 nM and 46.3 nM with HOP-62 NSCLC; 211 nM and 216 nM with K-562 leukemia; 182 nM and 187 nM in the experiment on M14 melanoma; > 1000 nM and 178 nM in the experiment on MCF7 breast; 179 nM and 56.2 nM in the experiment with MDA-MB-231 breast. The GI50 in the experiment with OVCAR-8 ovarian was 306 nM and 90.4 nM; with RPMI-8226 leukemia, 189 nM and 126 nM; in the experiment on SF-268 CNS, 215 nM and 120 nM; with SK-OV-3 ovarian, 187 nM and 162 nM. The TGI with A498 renal is > 1000 nM and 37500 nM; in the experiment with HOP-62 NSCLC, 360 nM and 105 nM; with K-562 leukemia it was 452 nM and 785 nM; in the experiment with M14 melanoma, 330 nM and 349 nM; in the experiment with MCF7 breast, > 1000 nM and 344 nM; with MDA-MB-231 breast, 360 nM and 112 nM. Besides, the TGI is 842 nM and 281 nM in the experiment with OVCAR-8 ovarian; 424 nM and 452 nM in the experiment with RPMI-8226 leukemia; 440 nM and 318 nM with SF-268 CNS; 362 nM and 311 nM in the experiment with SK-OV-3 ovarian.
On to `Oc1c(Cl)cc(C(c2cc(Cl)c(O)c(Cl)c2)C(c2cc(Cl)c(O)c(Cl)c2)c2cc(Cl)c(O)c(Cl)c2)cc1Cl`, for which the GI50 is 10100 nM with A498 renal; 6280 nM in the experiment with HOP-62 NSCLC; 13100 nM in the experiment with K-562 leukemia; 4250 nM in the experiment with M14 melanoma; 3180 nM in the experiment with MCF7 breast; 6220 nM in the experiment on MDA-MB-231 breast. The GI50 in the experiment on OVCAR-8 ovarian is 4110 nM; in the experiment with RPMI-8226 leukemia, 3000 nM; with SF-268 CNS, 5090 nM; in the experiment on SK-OV-3 ovarian it was 11300 nM. Besides, the TGI in the experiment with A498 renal amounted to 26300 nM; with HOP-62 NSCLC, 19200 nM; in the experiment with K-562 leukemia it was 38000 nM; with M14 melanoma it was 18800 nM; with MCF7 breast, 15800 nM; in the experiment on MDA-MB-231 breast it was 26400 nM. Also, the TGI in the experiment with OVCAR-8 ovarian stood at 22300 nM; in the experiment on RPMI-8226 leukemia it was 12400 nM; in the experiment with SK-OV-3 ovarian, 23400 nM.
As to `O=[n+]1cnn([O-])c2ccccc21`, the TGI in the experiment with A498 renal was > 100000 nM; with HOP-62 NSCLC it was 49900 nM; with K-562 leukemia it was > 100000 nM; with M14 melanoma it was 64000 nM; with MCF7 breast, 44400 nM; in the experiment with MDA-MB-231 breast, 31000 nM. The TGI in the experiment on OVCAR-8 ovarian, in the experiment on RPMI-8226 leukemia, in the experiment with SF-268 CNS and in the experiment with SK-OV-3 ovarian was > 100000 nM in each case.
Turning to `CCN(CC)CC(O)CNc1ccc(NCC(O)CCl)c2c1C(=O)c1ccccc1C2=O` (stereo unspecified), the TGI was 21000 nM in the experiment with A498 renal; 25600 nM with HOP-62 NSCLC; 6450 nM in the experiment with K-562 leukemia; 9380 nM in the experiment on M14 melanoma; 15300 nM with MCF7 breast; 27800 nM in the experiment with MDA-MB-231 breast. Further, the TGI in the experiment on OVCAR-8 ovarian came out at 20600 nM; in the experiment on RPMI-8226 leukemia, 26600 nM; in the experiment on SF-268 CNS, 19900 nM; in the experiment with SK-OV-3 ovarian, 39100 nM.
`COc1cc2c3c(n(CCCN=[N+]=[N-])c(=O)c2cc1OC)-c1ccc(N)cc1C3=O`: the GI50 with A498 renal was 75.9 nM; with HOP-62 NSCLC, 118 nM; in the experiment with K-562 leukemia it was 177 nM; in the experiment on M14 melanoma, 59.1 nM; in the experiment on MCF7 breast, 143 nM; in the experiment on MDA-MB-231 breast, 625 nM. Besides, the GI50 is 436 nM in the experiment on OVCAR-8 ovarian, 30.6 nM in the experiment with RPMI-8226 leukemia, 340 nM in the experiment with SF-268 CNS and 277 nM in the experiment on SK-OV-3 ovarian. In addition, the TGI with A498 renal was found to be 484 nM; in the experiment with HOP-62 NSCLC, 666 nM; in the experiment on M14 melanoma, 237 nM; in the experiment on MDA-MB-231 breast, 2180 nM; with OVCAR-8 ovarian it was 1900 nM; with RPMI-8226 leukemia, 446 nM. In addition, the TGI in the experiment with SF-268 CNS was > 32400 nM; with SK-OV-3 ovarian it was 716 nM.
For `CCN(CC)CCC(CNc1c2ccc([N+](=O)[O-])cc2nc2cc(OC)c(OC)cc12)c1ccccc1` (stereo unspecified), the GI50 in the experiment with A498 renal was 1690 nM and 1190 nM; in the experiment with HOP-62 NSCLC, 284 nM and 226 nM; in the experiment on K-562 leukemia it was 142 nM and 146 nM; in the experiment with M14 melanoma, 335 nM and 305 nM; with MCF7 breast it was 36.3 nM and 42.8 nM; in the experiment with MDA-MB-231 breast, 174 nM and 178 nM. The GI50 was 450 nM and 166 nM with OVCAR-8 ovarian; 272 nM and 63.8 nM with RPMI-8226 leukemia; 238 nM and 109 nM in the experiment on SF-268 CNS; 844 nM and 695 nM with SK-OV-3 ovarian. The TGI with A498 renal is 3120 nM and 2520 nM; in the experiment on HOP-62 NSCLC it was 1230 nM and 1100 nM; with K-562 leukemia, 1250 nM and 3850 nM; with M14 melanoma, 1400 nM and 1230 nM; with MCF7 breast it was 905 nM and 1230 nM; in the experiment with MDA-MB-231 breast, 627 nM and 730 nM. Moreover, the TGI in the experiment on OVCAR-8 ovarian was 1870 nM and 978 nM; in the experiment on RPMI-8226 leukemia, 1150 nM and 411 nM; in the experiment on SF-268 CNS, 1290 nM and 573 nM; in the experiment on SK-OV-3 ovarian, 2170 nM and 2550 nM.
As to `Clc1ccc(N/N=C/c2ccccn2)nc1`, the GI50 is 439 nM with A498 renal; 421 nM with HOP-62 NSCLC; 383 nM in the experiment on K-562 leukemia; 375 nM in the experiment on M14 melanoma; 338 nM in the experiment on MCF7 breast; 463 nM with MDA-MB-231 breast. Also, the GI50 is 425 nM with OVCAR-8 ovarian, 462 nM in the experiment with RPMI-8226 leukemia, 365 nM in the experiment on SF-268 CNS and 508 nM in the experiment with SK-OV-3 ovarian. For the same compound, the TGI in the experiment on A498 renal was 5900 nM; in the experiment on HOP-62 NSCLC, > 80300 nM; in the experiment with K-562 leukemia it was > 100000 nM; in the experiment on MCF7 breast, > 100000 nM; in the experiment on MDA-MB-231 breast, > 100000 nM; in the experiment on OVCAR-8 ovarian, > 100000 nM. In addition, the values for the TGI in the experiment on RPMI-8226 leukemia, with SF-268 CNS and in the experiment on SK-OV-3 ovarian were 18700 nM, > 100000 nM and > 100000 nM, respectively.
